Test results from US6569842B2 (Board of Trustees of the University of Illinois, The, priority 2000, dated 2003).
≈ marks a conversion by molar mass, not a printed value. Like-named read-outs stand apart in the source and are kept apart here.

Assays:
A431 (squamous cells) = test: Cytotoxicity against cultured A431 cells (SRB); format: cell-based, human
Procedure: (§1) Cytotoxicity of the crude extracts and purified compounds was determined in a number of cultured human cancer cell lines. Table 1 sets forth the various types of cancer cells evaluated using Method A. The cells were cultured in appropriate media and under standard conditions. To maintain logarithmic growth, the media were changed 24 hours prior to cytotoxic assays. On the day of the assay, the cells were harvested by trypsinization, counted, diluted in media, and added to 96-well plates containing test compounds dissolved in DMSO. The final DMSO concentration was 0.05%.
(§2) In each of Methods A-C, the plates were incubated for three days. Following the incubation period, the cells were fixed and stained with sulforhodamine B (SRB) dye. The bound dye was liberated with Tris base, and the OD515 (optical density at 515 nm) was measured on an ELISA reader. The growth of the betulinic acid-treated cells was determined by the OD515 values, and the growth was compared to the OD515 values of treated control cells of Methods A-C. Dose response studies were performed to generate ED50 values. As used herein, the term OD515 is defined as optical density at 515 nm, and the term ED50 is defined as the concentration of a compound required to reduce cell number by 50%.

BC-1 (breast) [1] = test: Cytotoxicity against cultured BC-1 cells (SRB); format: cell-based, human; settings: Homo sapiens, BC1, 72 h, read-out: ED50 BC-1
Procedure: as §1
as §2, with “The growth of the betulinic acid-treated cells was determined by the OD515 values, and the growth was compared to the OD515 values of treated control cells of Methods A-C.” left out

COL-2 (colon) [2] = test: Cytotoxicity against cultured COL-2 cells (SRB); format: cell-based, human; settings: Homo sapiens, Col2, 72 h, read-out: ED50 COL-2
Procedure: as §1, §2

HT-1080 (sarcoma) = test: Cytotoxicity against cultured HT-1080 cells (SRB); format: cell-based, human; settings: for IC50: Homo sapiens, HT-1080, 72 h, Method A, sample dissolved in DMSO, three days incubation, read-out: ED50 HT-1080
Procedure: as §1, §2

[3] = system: KB (human oral epidermoid carcinoma); test: Cytotoxicity against cultured KB cells (SRB); format: cell-based
Procedure: as §1, §2

LNCaP (prostate) [4] = test: Cytotoxicity against cultured LNCaP cells (SRB); format: cell-based, human; settings: Method A, sample dissolved in DMSO; three days incubation
Procedure: as §1, §2

LU-1 (lung) = test: Cytotoxicity against cultured LU-1 cells (SRB); format: cell-based, human; settings: for IC50: Homo sapiens, Lu1, 72 h, Method A, sample dissolved in DMSO, three days incubation, read-out: ED50 LU-1
Procedure: as §1, §2

MEL-2 (melanoma) [5] = test: Cytotoxicity against cultured MEL-2 cells (SRB); format: cell-based, human; settings: Homo sapiens, MEL2, 72 h, read-out: ED50 MEL-2
Procedure: as §1, §2

U373 (glioma) [6] = test: Cytotoxicity against cultured U373 cells (SRB); format: cell-based, human; settings: Method A, sample dissolved in DMSO; three days incubation
Procedure: as §1, §2

ZR-75-1 (breast) [7] = test: Cytotoxicity against cultured ZR-75-1 cells (SRB); format: cell-based, human; settings: Homo sapiens, ZR-75-1, 72 h, read-out: ED50 ZR 75-1
Procedure: as §1, §2

[8] = system: MEL-1 human melanoma cell line; test: Cytotoxicity against cultured MEL-1 cells (SRB); format: cell-based
Procedure: as §1, §2

[9] = system: MEL-3 human melanoma cell line; test: Cytotoxicity against cultured MEL-3 cells; format: cell-based; settings: dose-response study
Procedure: as §2

[10] = system: MEL-4 human melanoma cell line; test: Cytotoxicity against cultured MEL-4 cells (SRB); format: cell-based
Procedure: as §1, §2

[11] = system: human neuroblastoma cell lines; test: Cytotoxic activity against neuroblastoma cell lines; format: cell-based
[12] = mouse, in vivo, 500 mg/kg
Procedure: In particular, the data was derived from experiments wherein four week old athymic mice were injected subcutaneously in the right flank with 3.0×10^8 UISO MEL-2 cells. UISO MEL-2 is a cell line derived from metastatic melanoma from human pleural fluid. Drug treatment was initiated on the day following tumor cell injection and continued every fourth day for a total of six doses. […] The mice were weighed, and the tumors measured with a micrometer every other day throughout the study. All animals were sacrificed and autopsied on day 33, when the mean tumor volume in the control animals was approximately one cm^3.

UISO MEL-1 cells = test: In vivo study, MEL-1 tumors in athymic mice; settings: 5, 50 or 250 mg/kg/dose IP betulinic acid/PVP every fourth day, six doses
Procedure: In particular, four-week-old athymic mice were injected subcutaneously in the right flank with 5.0×10^8 UISO MEL-1 cells. Drug treatment was initiated on the day following tumor cell injection and continued every fourth day for a total of six doses. […] The mice were weighed, and tumors were measured with a micrometer every third day throughout the study. Treated animals were sacrificed and autopsied on day 41, when the mean tumor volume in the control mice was approximately 0.5 cm^3. The control mice then received six doses of 50 mg/kg every fourth day beginning day 41 and were sacrificed and autopsied on day 71.
The results with respect to MEL-1 cells were similar to the results with respect to MEL-2 cells.

BC-1 (breast) [13] = test: Cytotoxicity against cultured BC-1 cells (SRB); format: cell-based, human; settings: Method B, sample dissolved in tissue culture media
COL-2 (colon) [14] = test: Cytotoxicity against cultured COL-2 cells (SRB); format: cell-based, human; settings: Method B, sample dissolved in tissue culture media
LNCaP (prostate) [15] = test: Cytotoxicity against cultured LNCaP cells (SRB); format: cell-based, human
MEL-2 (melanoma) [16] = test: Cytotoxicity against cultured MEL-2 cells (SRB); format: cell-based, human
U373 (glioma) [17] = test: Cytotoxicity against cultured U373 cells (SRB); format: cell-based, human
ZR-75-1 (breast) [18] = test: Cytotoxicity against cultured ZR-75-1 cells (SRB); format: cell-based, human
[19] = 200 and 400 mg/kg doses; cited from earlier work
[20] = Method A, sample dissolved in DMSO, three days incubation
[21] = Method B, sample dissolved in tissue culture media
[22] = Method C, sample dissolved in 5% aqueous bovine serum albumin

C=C(C)[C@@H]1CC[C@]2(C(=O)O)CC[C@]3(C)[C@H](CC[C@@H]4[C@@]5(C)CC[C@H](O)C(C)(C)[C@@H]5CC[C@]43C)[C@@H]12 [Betulinic acid, 3β-hydroxy-lup-20 (29)ene-28-oic acid]
ED50 A431 (A431 (squamous cells); [20]): >20 µg/mL | ED50 A431 (A431 (squamous cells); [21]): 12.1 µg/mL (≈ 26.5 µM) | ED50 A431 (A431 (squamous cells); [22]): >20 µg/mL | IC50 (BC-1 (breast) [1]; [20]): > 20 µg/mL | IC50 (COL-2 (colon) [2]; [20]): > 20 µg/mL | IC50 (HT-1080 (sarcoma)): > 20 µg/mL | ED50 HT (HT-1080 (sarcoma); [21]): 11.3 µg/mL (≈ 24.7 µM) | ED50 HT (HT-1080 (sarcoma); [22]): 10.0 µg/mL (≈ 21.9 µM) | ED50 KB [3, 21]: >20 µg/mL | ED50 KB [3, 22]: 16.6 µg/mL (≈ 36.3 µM) | ED50 LNCaP (LNCaP (prostate) [4]): >20 µg/mL | IC50 (LU-1 (lung)): > 20 µg/mL | ED50 Lu1 (LU-1 (lung); [21]): 7.7 µg/mL (≈ 16.9 µM) | IC50 (MEL-2 (melanoma) [5]; [20]): ~2 µg/mL (≈ 4.38 µM) | ED50 U373 (U373 (glioma) [6]): >20 µg/mL | IC50 (ZR-75-1 (breast) [7]; [20]): > 20 µg/mL | ED50 MEL-1 [8, 20]: 1.1 µg/mL (≈ 2.41 µM) | ED50 Mel1 [8, 21]: 0.9 µg/mL (≈ 1.97 µM) | ED50 MEL-3 [9]: 3.3 µg/mL (≈ 7.23 µM) | ED50 MEL-4 [10, 20]: 4.8 µg/mL (≈ 10.5 µM) | ED50 Mel4 [10, 21]: 1.6 µg/mL (≈ 3.5 µM) | cytotoxic activity against human neuroblastoma cell lines [11]: excellent cytotoxic activity | acute toxicity and body weight [12]: without causing acute signs of toxicity or a decrease in body weight | activity against MEL-1 tumors (UISO MEL-1 cells): active | ED50 BC1 (BC-1 (breast) [13]): 11.2 µg/mL (≈ 24.5 µM) | ED50 Col2 (COL-2 (colon) [14]): 13.3 µg/mL (≈ 29.1 µM) | ED50 LNCaP (LNCaP (prostate) [15]; [21]): 19.3 µg/mL (≈ 42.3 µM) | ED50 LNCaP (LNCaP (prostate) [15]; [22]): 16.6 µg/mL (≈ 36.3 µM) | ED50 Mel2 (MEL-2 (melanoma) [16]; [21]): 0.9 µg/mL (≈ 1.97 µM) | ED50 Mel2 (MEL-2 (melanoma) [16]; [22]): 1.6 µg/mL (≈ 3.5 µM) | ED50 U373 (U373 (glioma) [17]; [21]): 12.1 µg/mL (≈ 26.5 µM) | ED50 U373 (U373 (glioma) [17]; [22]): 18.7 µg/mL (≈ 40.9 µM) | ED50 ZA-75-1 (ZR-75-1 (breast) [18]; [21]): 6.4 µg/mL (≈ 14 µM) | ED50 ZA-75-1 (ZR-75-1 (breast) [18]; [22]): 6.9 µg/mL (≈ 15.1 µM) | activity in Hippocratic screen [19]: inactive

CC[C@@]1(O)C(=O)OCc2c1cc1n(c2=O)Cc2cc3ccccc3nc2-1 [Camptothecin]
IC50 (BC-1 (breast) [1]; [20]): 0.07 µg/mL (≈ 0.201 µM) | IC50 (COL-2 (colon) [2]; [20]): 0.005 µg/mL (≈ 0.0144 µM) | IC50 (HT-1080 (sarcoma)): 0.01 µg/mL (≈ 0.0287 µM) | ED50 LNCaP (LNCaP (prostate) [4]): 0.006 µg/mL (≈ 0.0172 µM) | IC50 (MEL-2 (melanoma) [5]; [20]): 0.02 µg/mL (≈ 0.0574 µM) | IC50 (ZR-75-1 (breast) [7]; [20]): 0.001 µg/mL (≈ 0.00287 µM)

Cc1c2ccncc2c(C)c2c1[nH]c1ccccc12 [Ellipticine]
ED50 A431 (A431 (squamous cells); [20]): 0.5 µg/mL (≈ 2.03 µM) | IC50 (BC-1 (breast) [1]; [20]): 0.2 µg/mL (≈ 0.812 µM) | IC50 (COL-2 (colon) [2]; [20]): 0.3 µg/mL (≈ 1.22 µM) | IC50 (HT-1080 (sarcoma)): 1.8 µg/mL (≈ 7.31 µM) | ED50 KB [3, 20]: 0.04 µg/mL (≈ 0.162 µM) | ED50 LNCaP (LNCaP (prostate) [4]): 0.8 µg/mL (≈ 3.25 µM) | IC50 (LU-1 (lung)): 0.02 µg/mL (≈ 0.0812 µM) | IC50 (MEL-2 (melanoma) [5]; [20]): 0.9 µg/mL (≈ 3.65 µM) | ED50 U373 (U373 (glioma) [6]): 1.6 µg/mL (≈ 6.5 µM) | IC50 (ZR-75-1 (breast) [7]; [20]): 0.9 µg/mL (≈ 3.65 µM)

COC(=O)C[C@](O)(CCCC(C)(C)O)C(=O)O[C@@H]1C(OC)=C[C@]23CCCN2CCc2cc4c(cc2[C@H]13)OCO4 [Homoharringtonine]
ED50 A431 (A431 (squamous cells); [20]): 0.02 µg/mL (≈ 0.0367 µM) | IC50 (BC-1 (breast) [1]; [20]): 0.03 µg/mL (≈ 0.055 µM) | IC50 (COL-2 (colon) [2]; [20]): 0.1 µg/mL (≈ 0.183 µM) | IC50 (HT-1080 (sarcoma)): 0.01 µg/mL (≈ 0.0183 µM) | ED50 LNCaP (LNCaP (prostate) [4]): 0.03 µg/mL (≈ 0.055 µM) | IC50 (LU-1 (lung)): 0.03 µg/mL (≈ 0.055 µM) | IC50 (MEL-2 (melanoma) [5]; [20]): 0.04 µg/mL (≈ 0.0733 µM) | ED50 U373 (U373 (glioma) [6]): 0.2 µg/mL (≈ 0.367 µM) | IC50 (ZR-75-1 (breast) [7]; [20]): 0.06 µg/mL (≈ 0.11 µM)

COc1cc([C@@H]2c3cc4c(cc3[C@H](O)[C@H]3COC(=O)[C@H]23)OCO4)cc(OC)c1OC [Podophyllotoxin]
ED50 A431 (A431 (squamous cells); [20]): 0.03 µg/mL (≈ 0.0724 µM) | IC50 (BC-1 (breast) [1]): 0.03 µg/mL (≈ 0.0724 µM) | IC50 (COL-2 (colon) [2]): 0.005 µg/mL (≈ 0.0121 µM) | ED50 KB [3, 20]: 0.08 µg/mL (≈ 0.193 µM) | ED50 LNCaP (LNCaP (prostate) [4]): 0.04 µg/mL (≈ 0.0965 µM) | IC50 (MEL-2 (melanoma) [5]): 0.003 µg/mL (≈ 0.00724 µM) | ED50 U373 (U373 (glioma) [6]): 0.004 µg/mL (≈ 0.00965 µM) | IC50 (ZR-75-1 (breast) [7]): 0.4 µg/mL (≈ 0.965 µM)
